Data on four compounds can be found in ChEMBL document CHEMBL1201862, “PubChem BioAssay data set” (2004).

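In this assay, cells in 96-well plates receive the compound at five concentrations for 48 hours. Endpoints are linearly interpolated between the surrounding concentrations. The concentration for 50% growth inhibition is given as GI50.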 Active and inactive are the calls of the source. Rule as the data show it: active = GI50 up to about 1.1 µM and inactive = higher.

Some test systems named below: RXF 393; SK-MEL-28; MCF7; NCI-H522; SF-295; SK-MEL-5; A549; SW-620; HCT-15; PC-3; OVCAR-8; SN12C; HOP-92; CAKI-1; U-251; HT-29; M14; OVCAR-4; OVCAR-3; MDA-MB-231.
Common to all, as to assay: DTP human tumour cell line panel, 48 h

Usually GI50 stands for the concentration that inhibits growth by half.

As to `O=C1OCCC12CN(Cc1ccccc1)N=N2` (stereo not given), the GI50 in the assay on RXF 393 was > 100 µM (inactive); in the assay with SK-MEL-28 it was > 100 µM (inactive); with MCF7, > 100 µM (inactive); in the assay on NCI-H522, 49.9 µM (inactive); with SF-295, > 100 µM (inactive); with SK-MEL-5, > 100 µM (inactive). The GI50 with A549 was > 100 µM (inactive); in the assay on SW-620 it was > 100 µM (inactive); in the assay on HCT-15, over 100 µM; with PC-3, > 100 µM (inactive); with OVCAR-8 it was > 100 µM (inactive); with SN12C, > 100 µM (inactive). The GI50 in the assay on HOP-92 is > 100 µM (inactive); in the assay on CAKI-1, 58.7 µM (inactive); in the assay with U-251, > 100 µM (inactive); in the assay on HT-29, > 100 µM (inactive); with M14 it was > 100 µM (inactive); in the assay on OVCAR-4, > 100 µM (inactive). Moreover, the GI50 in the assay on OVCAR-3 and in the assay on MDA-MB-231 was > 100 µM (inactive) throughout.
In the case of `O=C(O)c1nn(-c2ccc(Cl)cc2)c2c1C(=O)c1ccccc1C2=O`, the GI50 in the assay with RXF 393 is 17.5 µM (inactive); in the assay with SK-MEL-28, > 100 µM (inactive); in the assay with MCF7 it was > 100 µM (inactive); in the assay on NCI-H522, > 100 µM (inactive); with SF-295, > 100 µM (inactive); in the assay with SK-MEL-5, 20.5 µM (inactive). Further, the GI50 in the assay with A549 was > 100 µM (inactive); in the assay with SW-620, > 100 µM (inactive); in the assay on HCT-15, over 100 µM; in the assay on PC-3, > 100 µM (inactive); in the assay on OVCAR-8 it was > 100 µM (inactive); in the assay on SN12C it was > 100 µM (inactive). Further, the GI50 in the assay on HOP-92 is > 100 µM (inactive); in the assay on CAKI-1, > 100 µM (inactive); in the assay with U-251, 55.7 µM (inactive); in the assay on HT-29, > 100 µM (inactive); in the assay with M14 it was 20 µM (inactive); in the assay with OVCAR-4, > 100 µM (inactive). Moreover, the GI50 in the assay with OVCAR-3 is 24.7 µM (inactive); in the assay on MDA-MB-231, 41.3 µM (inactive).
Consider `O=C1c2cc(Cc3ccccc3)c(=O)c(Cc3ccccc3)cc2C(=O)c2cc(Cc3ccccc3)c(=O)c(Cc3ccccc3)cc21`, for which the GI50 is 24.4 µM (inactive) in the assay on RXF 393; > 100 µM (inactive) in the assay on SK-MEL-28; > 100 µM (inactive) in the assay on MCF7; > 100 µM (inactive) in the assay on NCI-H522; > 100 µM (inactive) with SF-295; > 100 µM (inactive) with SK-MEL-5. For the same compound, the GI50 was > 100 µM (inactive) with A549; > 100 µM (inactive) in the assay on SW-620; over 100 µM in the assay on HCT-15; > 100 µM (inactive) in the assay with PC-3; > 100 µM (inactive) with OVCAR-8; > 100 µM (inactive) in the assay on SN12C. Further, the GI50 in the assay on HOP-92, in the assay with CAKI-1, in the assay on U-251, in the assay with HT-29, in the assay with M14 and with OVCAR-4 was > 100 µM (inactive) in each case. The GI50 in the assay with OVCAR-3 and with MDA-MB-231 was > 100 µM (inactive) throughout.
As for `c1ccc2c(c1)ccn2CCc1c[nH]c2ccccc12`, the GI50 in the assay with RXF 393 was 9.31 µM (inactive); in the assay on SK-MEL-28, > 10 µM (inactive); with MCF7 it was > 10 µM (inactive); in the assay with NCI-H522, > 10 µM (inactive); in the assay with SF-295 it was > 10 µM (inactive); in the assay with SK-MEL-5 it was > 10 µM (inactive). Further, the GI50 with A549 was > 10 µM (inactive); in the assay on SW-620, > 10 µM (inactive); with HCT-15, over 10 µM; with PC-3, > 10 µM (inactive); in the assay with OVCAR-8, > 10 µM (inactive); in the assay on SN12C, > 10 µM (inactive). In addition, the GI50 with HOP-92, in the assay with CAKI-1, in the assay on U-251, in the assay on HT-29, with M14 and with OVCAR-4 was > 10 µM (inactive) throughout. The GI50 in the assay on OVCAR-3 and in the assay on MDA-MB-231 was > 10 µM (inactive) each time.
